Laboratory results reported in patent publication US9775348B2, “Composition comprising a sesterterpene and use thereof as antibiotic and antifungal adjuvant” (RODE PHARMA S.R.L., priority 2012, dated 2017).

Columns and labels:
Type in all cases: cell-based
[1] = tested on: Chaetomium globosum, ATCC 16021; experiment: Fungal test, inhibition halo in Petri dish with central well; settings: tests with well, 25° C.
Description: (§1) A study about the efficacy of the composition of the present invention to some fungi was conducted. The compositions were tested according to the MIC method. The methodology being used is herein reported.
(§2) The tested fungi strains were as follows: i) Aspergillus niger, ATCC 16404; ii) Trichoderma viride, ATCC 28020; iii) Penicillium funiculosum ATCC 9644 and iv) Chaetomium globosum, ATCC 16021.
(§3) For each strain, time by time, a culture in liquid nutrient medium such as SABORAUD DEXEROSE AGAR was made.
(§4) Freshly-made subcultures were created, and incubated until obtaining an estimated density of […]. The estimate was obtained by spectrophotometric measurement of absorption at 530 nm.
(§5) Bacteriostatic tests: The tests were performed by placing fungal culture aliquots (set forth in the tables below) in Petri dishes with a central well (1 centimeter diameter) in which the product to be tested was poured. All the plates were incubated at 25° C. The incubation time for solutions A, B, C, D, E and F was 72 hours, while for products. M1, M2 and M3 the time was 30 hours.
(§6) The results are expressed as inhibition halo diameter being measured over each plate. […] Consequently, a 0 mm diameter denotes an undetectable halo. The described values indicate the average from the minimum and maximum values of halos for each test. Values are expressed in mm of inhibition.

[2] = tested on: Penicillium funiculosum ATCC 9644; experiment: as above; settings: tests with well, 25° C.
Description: as §1, §2, §3, §4, §5, §6

[3] = tested on: Aspergillus niger, ATCC 16404; experiment: as above; settings: tests with well, 25° C.
Description: as §1, §2, §3, §4, §5, §6

[4] = tested on: Trichoderma viride, ATCC 28020; experiment: as above; settings: tests with well, 25° C.
Description: as §1, §2, §3, §4, §5, §6

[5] = tested on: fungi; experiment: Fungal tests, overall conclusion versus fluconazole; settings: 0.07 mg versus 2 mg (about 1:28 ratio); alone or combined with each other
Description: as §1, §2, §5, §6

[6] = tested on: Staphylococcus aureus ATCC 25923; experiment: Bacteriostatic test, inhibition halo in Petri dish with central well; settings: 2 cc of a 0.7% solution equal to 35 mg, diameter does not include the 10 mm central well
Description: (§7) A study about the efficacy of a gascardic acid-based composition referred to as M3 was conducted against some publicly available pathogenic bacteria such as (1) Staphylococcus aureus—ATCC 25923 (190×10^6 UFC/ml) (2) Pseudomonas aeruginosa—ATCC 15442 (305×10^6 UFC/ml) and (3) Escherichia coli—ATCC 25922 (300×10^6 UFC/ml). The composition M3 was tested according to MIC method.
(§8) The method was carried out as follows. Time by time, a culture of the above-mentioned strains was prepared in a Tryptic soy Agar type growth medium. Freshly-made subcultures were prepared, and incubated until obtaining an estimated density of 1×10^6 cells per ml of culture. The assessment was obtained by spectrophotometric measurement of absorption at known wavelengths.
(§9) The bacteriostatic tests were performed by placing the bacterial culture in Petri dishes with a central well of 1 cm diameter, containing the 2 cc aliquot of composition M3. Then, the freshly-made subculture was plated over the surrounding medium. Next, the Petri dishes were placed in a thermostatic environment at 30° C. and examined after 24 and 48 ore.
(§10) The results are expressed as inhibition halo diameter measured over each Petri dish. […] Consequently, a zero mm (0 mm) diameter denotes an undetectable halo. The given average values are obtained by considering the minimum and maximum value of each halo.
(§11) According to the above-described MIC method, a test where the pathogenic bacteria (1) Staphylococcus aureus ATCC 25923 (2) Pseudomonas aeruginosa ATCC 15442 and (3) Escherichia coli ATCC 25922 were tested along using composition M5 and composition M5+M3 was conducted.

[7] = tested on: Pseudomonas aeruginosa ATCC 15442; experiment: as above; settings: 2 cc of a 0.7% solution equal to 35 mg, diameter does not include the 10 mm central well
Description: as §7, §8, §9, §10, §11

[8] = tested on: Escherichia coli ATCC 25922; experiment: as above; settings: 2 cc of a 0.7% solution equal to 35 mg, diameter does not include the 10 mm central well
Description: as §7, §8, §9, §10, §11

[9] = incubation 72 hours, 1 cc per plate
[10] = incubation 30 hours, 1 cc (0.07 mg of compound)

| Compound | mm of inhibition (inhibition halo diameter) [1, 9] | mm of inhibition (inhibition halo diameter) [2, 9] [mm] | mm of inhibition (inhibition halo diameter) [3, 9] [mm] | mm of inhibition (inhibition halo diameter) [4, 9] [mm] | mm of inhibition (inhibition halo diameter) [1, 10] | mm of inhibition (inhibition halo diameter) [2, 10] | mm of inhibition (inhibition halo diameter) [3, 10] | mm of inhibition (inhibition halo diameter) [4, 10] | fungicidal activity compared with M4 (fluconazole) [5] | Halo in mm (inhibition halo diameter) [6] [mm] | Halo in mm (inhibition halo diameter) [7] [mm] | Halo in mm (inhibition halo diameter) [8] [mm] |
| --- | --- | --- | --- | --- | --- | --- | --- | --- | --- | --- | --- | --- |
| OC(Cn1cncn1)(Cn1cncn1)c1ccc(F)cc1F [Test A, Fluconazole, reference compound] | 11-17 mm | 0 | 1 | 0 |  |  |  |  |  |  |  |  |
| C=C(C)[C@@H]1CC[C@]2(C(=O)O)CC[C@]3(C)[C@H](CC[C@@H]4[C@@]5(C)CC[C@H](O)C(C)(C)[C@@H]5CC[C@]43C)[C@@H]12 [Test M1, Betulinic acid] |  |  |  |  | 22-26 mm | 12-18 (*) mm | 15-16 mm | 31-34 (*) mm |  |  |  |  |
| C[C@H]1C(=O)CC[C@@H]2[C@]1(C)CC[C@H]1[C@@]2(C)CC[C@@]2(C)[C@@H]3CC(C)(C)CC[C@]3(C)CC[C@]12C [Test M2, Fridelin] |  |  |  |  | 5-11 (*) mm | 1-1.5 mm | 3-4 mm | 2-6 mm | strong fungicidal activity than M4 |  |  |  |
| Gascardic acid [Test M3] |  |  |  |  | 19-26 mm | 15-20 (*) mm | 15-18 mm | 16-27 mm | strong fungicidal activity than M4 | 8 | 6 | 6 |
